The target in test [1] is T1, GPR17 (Homo sapiens, UniProt Q13304). Description: cAMP accumulation functional assay (HTRF, Schild analysis). In kind it is cell-based. More on the design: host or cells: Flp-In T-REx CHO. The note with it: CHO hGPR17 cells, Schild analysis vs MDL29,951, 5 μM forskolin, read-out: cAMP assay pA2 (converted). A digest of the protocol: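 Antagonist affinity (pA2) came from Schild plots of dose ratios, based on MDL29,951 concentration-response curves fitted by 4-parameter logistic. The read-out was HTRF cAMP in 5,000 doxycycline-induced CHO hGPR17 cells per well, with 30 min compound preincubation and 60 min stimulation, at room temperature in pH 7.4 buffer.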
A general note: Cyclic AMP is a second messenger, typically raised through Gs and lowered through Gi signalling.

The target in test [2] is T1, GPR17. Description: Calcium mobilization functional assay (GPR17 Ca2+ assay). The format is cell-based. Further details: host or cells: Flp-In T-REx CHO. The note with it: CHO hGPR17 cells, inhibition of 50 nM MDL29,951, Calcium 5 dye, FLIPR; read-out: Ca2+ assay pIC50 (converted). The procedure, abridged: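 pIC50 values were fitted with a 4-parameter logistic curve. They reflect test-compound inhibition of cytosolic Ca2+ release evoked by 50 nM MDL29,951, tracked as Calcium 5 fluorescence at room temperature. Cells were CHO Flp-In T-REx stably carrying human GPR17, induced with doxycycline 1 μg/mL for 16-20 h.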
In general terms: Calcium assays in cells follow changes in intracellular calcium, usually with a dye or a luminescent sensor.

T1 sequence (Q13304 whole entry): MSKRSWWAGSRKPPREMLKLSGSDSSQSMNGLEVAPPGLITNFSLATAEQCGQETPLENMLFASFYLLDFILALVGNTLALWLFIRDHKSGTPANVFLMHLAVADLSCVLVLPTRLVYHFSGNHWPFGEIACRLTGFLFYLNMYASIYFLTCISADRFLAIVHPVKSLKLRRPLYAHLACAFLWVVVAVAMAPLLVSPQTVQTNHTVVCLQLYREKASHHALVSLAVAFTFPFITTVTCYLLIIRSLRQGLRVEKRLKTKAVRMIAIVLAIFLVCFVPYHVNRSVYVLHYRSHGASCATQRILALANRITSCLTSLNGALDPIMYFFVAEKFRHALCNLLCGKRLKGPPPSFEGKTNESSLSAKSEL

For the molecule `[N-]=[N+]=Nc1ccc(NS(=O)(=O)c2c[nH]c3cc(Cl)ccc23)c(F)c1` [Compound I-241, N-(4-azido-2-fluorophenyl)-6-chloro-1H-indole-3-sulfonamide], the Kb at GPR17 [1] was 3.16 to 31.6 nM. For the same molecule, the IC50 at GPR17 [2] is 3.16 to 31.6 nM.
Take `O=S(=O)(Nc1cc(F)c(Cl)cc1F)c1c[nH]c2c(F)c(Cl)ccc12` [Compound I-242, 6-chloro-N-(4-chloro-2,5-difluorophenyl)-7-fluoro-1H-indole-3-sulfonamide]: the Kb at GPR17 [1] is < 3.16 nM. Further, at GPR17 [2], the IC50 was 3.16 to 31.6 nM.
Take `O=C1OCc2cc(F)c(NS(=O)(=O)c3c[nH]c4cc(Cl)ccc34)cc21` [Compound I-243, 6-chloro-N-(6-fluoro-3-oxo-1,3-dihydro-2-benzofuran-5-yl)-1H-indole-3-sulfonamide]: at GPR17 [1], the Kb is 3.16 to 31.6 nM. Also, the IC50 at GPR17 [2] was 3.16 to 31.6 nM.
`COc1c(Cl)ccc2c(S(=O)(=O)Nc3cc(F)c(Cl)cc3F)c[nH]c12` [Compound I-244, 6-chloro-N-(4-chloro-2,5-difluorophenyl)-7-methoxy-1H-indole-3-sulfonamide]: the Kb at GPR17 [1] is < 3.16 nM. Also, the IC50 at GPR17 [2] was 3.16 to 31.6 nM.
`O=S(=O)(Nc1nc(F)c(Br)cc1F)c1c[nH]c2cc(Cl)ccc12` [Compound I-245, N-(5-bromo-3,6-difluoropyridin-2-yl)-6-chloro-1H-indole-3-sulfonamide]: the Kb on GPR17 [1] was < 3.16 nM. The IC50 at GPR17 [2] is < 3.16 nM.
Consider `O=S(=O)(Nc1cc(F)c(OCC(F)F)cc1F)c1c[nH]c2cc(Cl)ccc12` [Compound I-246, 6-chloro-N-[4-(2,2-difluoroethoxy)-2,5-difluorophenyl]-1H-indole-3-sulfonamide], for which the Kb at GPR17 [1] was < 3.16 nM. Also, the IC50 on GPR17 [2] was < 3.16 nM.
`O=S(=O)(Nc1cc(F)c(Cl)cc1F)c1c[nH]c2nc(C(F)(F)F)ccc12` [Compound I-247, N-(4-chloro-2,5-difluorophenyl)-6-(trifluoromethyl)-1H-pyrrolo[2,3-b]pyridine-3-sulfonamide]: the Kb on GPR17 [1] was < 3.16 nM. The IC50 at GPR17 [2] was 3.16 to 31.6 nM.
The like results for `O=S(=O)(Nc1cc(F)c(Cl)cc1F)c1c[nH]c2cc(Cl)c(Br)cc12` [Compound I-248, 5-bromo-6-chloro-N-(4-chloro-2,5-difluorophenyl)-1H-indole-3-sulfonamide] were, in that order, 3.16 to 31.6 nM and 3.16 to 31.6 nM.
The like results for `Cc1noc(C)c1-c1c(Cl)ccc2c(S(=O)(=O)Nc3cc(F)c(Cl)cc3F)c[nH]c12` [Compound I-250, 6-chloro-N-(4-chloro-2,5-difluorophenyl)-7-(3,5-dimethyl-1,2-oxazol-4-yl)-1H-indole-3-sulfonamide] were, in that order, 3.16 to 31.6 nM and 3.16 to 31.6 nM.
For `O=S(=O)(Nc1cc(F)c(Cl)cc1F)c1c[nH]c2cc(Br)cc(F)c12` [Compound I-251, 6-bromo-N-(4-chloro-2,5-difluorophenyl)-4-fluoro-1H-indole-3-sulfonamide], the Kb on GPR17 [1] was 3.16 to 31.6 nM. Also, at GPR17 [2], the IC50 is 3.16 to 31.6 nM.
As for `COC/C=C/c1cc(F)c(NS(=O)(=O)c2c[nH]c3cc(Cl)ccc23)nc1F` [Compound I-252, 6-chloro-N-{3,6-difluoro-5-[(1E)-3-methoxyprop-1-en-1-yl]pyridin-2-yl}-1H-indole-3-sulfonamide], on GPR17 [1], the Kb was < 3.16 nM. On GPR17 [2], the IC50 is < 3.16 nM.
For `COCCCc1cc(F)c(NS(=O)(=O)c2c[nH]c3cc(Cl)ccc23)nc1F` [Compound I-253, 6-chloro-N-[3,6-difluoro-5-(3-methoxypropyl)pyridin-2-yl]-1H-indole-3-sulfonamide], the Kb on GPR17 [1] is < 3.16 nM. The IC50 on GPR17 [2] was < 3.16 nM.
With `COc1nc(NS(=O)(=O)c2c[nH]c3cc(Cl)ccc23)c(F)cc1Cl` [Compound I-254, 6-chloro-N-(5-chloro-3-fluoro-6-methoxypyridin-2-yl)-1H-indole-3-sulfonamide], the Kb at GPR17 [1] is < 3.16 nM. For the same molecule, the IC50 on GPR17 [2] is < 3.16 nM.
`COc1nc(NS(=O)(=O)c2c[nH]c3cc(Cl)ccc23)c(F)cc1CC#N` [Compound I-255, 6-chloro-N-[5-(cyanomethyl)-3-fluoro-6-methoxypyridin-2-yl]-1H-indole-3-sulfonamide]: the Kb on GPR17 [1] is < 3.16 nM. Also, the IC50 at GPR17 [2] is < 3.16 nM.
On to `N#Cc1c(Cl)ccc2c(S(=O)(=O)Nc3cc(F)c(Cl)cc3F)c[nH]c12` [Compound I-256, 6-chloro-N-(4-chloro-2,5-difluorophenyl)-7-cyano-1H-indole-3-sulfonamide], for which the Kb at GPR17 [1] is < 3.16 nM. Also, the IC50 at GPR17 [2] is < 3.16 nM.
As to `N#CCOc1cc(F)c(NS(=O)(=O)c2c[nH]c3cc(Cl)ccc23)cc1F` [Compound I-257, 6-chloro-N-[4-(cyanomethoxy)-2,5-difluorophenyl]-1H-indole-3-sulfonamide], at GPR17 [1], the Kb was < 3.16 nM. In addition, the IC50 at GPR17 [2] was < 3.16 nM.
As to `N#Cc1ccc(NS(=O)(=O)c2c[nH]c3cc(Cl)c(F)cc23)c(F)c1` [Compound I-258, 6-chloro-N-(4-cyano-2-fluorophenyl)-5-fluoro-1H-indole-3-sulfonamide], at GPR17 [1], the Kb is 3.16 to 31.6 nM. Moreover, the IC50 on GPR17 [2] was < 3.16 nM.
The like results for `O=S(=O)(Nc1cc(F)c(Br)cc1F)c1coc2cc(Cl)ccc12` [Compound I-259, N-(4-bromo-2,5-difluorophenyl)-6-chloro-1-benzofuran-3-sulfonamide] were, in that order, < 3.16 nM and 3.16 to 31.6 nM.
As for `O=S(=O)(Nc1cc(F)c(OCC2CC2)cc1F)c1c[nH]c2cc(Cl)ccc12` [Compound I-260, 6-chloro-N-[4-(cyclopropylmethoxy)-2,5-difluorophenyl]-1H-indole-3-sulfonamide], on GPR17 [1], the Kb was 3.16 to 31.6 nM. In addition, the IC50 at GPR17 [2] is 3.16 to 31.6 nM.
Turning to `CS(=O)(=O)c1c(Cl)ccc2c(S(=O)(=O)Nc3cc(F)c(Cl)cc3F)c[nH]c12` [Compound I-261, 6-chloro-N-(4-chloro-2,5-difluorophenyl)-7-(methylsulfonyl)-1H-indole-3-sulfonamide], the Kb at GPR17 [1] was 3.16 to 31.6 nM. For the same molecule, at GPR17 [2], the IC50 was 3.16 to 31.6 nM.
In the case of `O=S(=O)(Nc1cc(F)c(Cl)cc1F)c1c[nH]c2c(OCC(F)F)c(Cl)ccc12` [Compound I-262, 6-chloro-N-(4-chloro-2,5-difluorophenyl)-7-(2,2-difluoroethoxy)-1H-indole-3-sulfonamide], the Kb at GPR17 [1] is < 3.16 nM. The IC50 at GPR17 [2] was 3.16 to 31.6 nM.
As to `O=S(=O)(Nc1cc(F)c(Cl)cc1F)c1c[nH]c2cc(Cl)c(F)cc12` [Compound I-263, 6-chloro-N-(4-chloro-2,5-difluorophenyl)-5-fluoro-1H-indole-3-sulfonamide], the Kb at GPR17 [1] is 3.16 to 31.6 nM. For the same molecule, at GPR17 [2], the IC50 was 3.16 to 31.6 nM.
As to `COc1cnc(NS(=O)(=O)c2c[nH]c3cc(Cl)ccc23)c(OC)c1` [Compound I-264, 6-chloro-N-(3,5-dimethoxypyridin-2-yl)-1H-indole-3-sulfonamide], the Kb on GPR17 [1] is > 31.6 nM. The IC50 on GPR17 [2] was > 31.6 nM.
Turning to `O=C1NCc2cc(F)c(NS(=O)(=O)c3c[nH]c4cc(Cl)ccc34)cc21` [Compound I-265, 6-chloro-N-(6-fluoro-3-oxo-2,3-dihydro-1H-isoindol-5-yl)-1H-indole-3-sulfonamide], on GPR17 [1], the Kb was > 31.6 nM. Moreover, the IC50 at GPR17 [2] was 3.16 to 31.6 nM.
`O=S(=O)(Nc1cc(F)c(OC(F)F)cc1F)c1c[nH]c2nc(Cl)ccc12` [Compound I-266, 6-chloro-N-[4-(difluoromethoxy)-2,5-difluorophenyl]-1H-pyrrolo[2,3-b]pyridine-3-sulfonamide]: on GPR17 [1], the Kb was < 3.16 nM. The IC50 at GPR17 [2] was < 3.16 nM.
